From patent US9115101B2 (Genentech, Inc., priority 2012, dated 2015) come the findings set out here.

The target of this assay is T1, RORc ligand binding domain (Homo sapiens, UniProt P51449).
T1 construct: host or cells: E. coli
T1 sequence (P51449 269-508 limits assumed): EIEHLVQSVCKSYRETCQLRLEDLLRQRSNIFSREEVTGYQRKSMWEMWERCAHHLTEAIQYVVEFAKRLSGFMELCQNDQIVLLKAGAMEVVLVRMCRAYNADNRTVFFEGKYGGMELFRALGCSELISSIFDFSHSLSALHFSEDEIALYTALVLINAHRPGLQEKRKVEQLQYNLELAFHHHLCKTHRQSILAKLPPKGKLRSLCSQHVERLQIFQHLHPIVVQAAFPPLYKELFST
Nature of the assay: In Vitro RORc Ligand Binding Assay (25-[3H]hydroxycholesterol radioligand filtration). Conditions: In Vitro RORc Ligand Binding Assay; Table 4; read-out: RORc IC50.

With `CC(=O)N1CCN(c2ccc(CN3[C@@H](C)CCC(c4ccccc4)S3(=O)=O)nc2)CC1` (stereo partly drawn) [Example 67, 1-{4-[6-((3S)-3-Methyl-1,1-dioxo-6-phenyl-[1,2]thiazinan-2-ylmethyl)-pyridin-3-yl]-piperazin-1-yl}-ethanone], the IC50 was found to be 1540 nM.

Consider `C[C@H]1CCC(c2ccccc2)S(=O)(=O)N1Cc1ccc(NC2CCC(C#N)CC2)cc1F` (stereo partly drawn) [Example 101, 4-[3-Fluoro-4-((3S)-3-methyl-1,1-dioxo-6-phenyl-[1,2]thiazinan-2-ylmethyl)-phenylamino]-cyclohexanecarbo-nitrile], for which the IC50 is 18 nM.

`C[C@H]1CCC(c2ccccc2)S(=O)(=O)N1Cc1ccc(N2CCN(C=O)CC2)cc1F` (stereo partly drawn) [Example 115, 4-[3-Fluoro-4-((3S)-3-methyl-1,1-dioxo-6-phenyl-[1,2]thiazinan-2-ylmethyl)-phenyl]-piperazine-1-carbaldehyde]: the IC50 was found to be 73 nM.

Take `C[C@H]1CCC(c2ccccc2)S(=O)(=O)N1Cc1ccc(N2CCC(C(=O)O)CC2)cc1F` (stereo partly drawn) [Example 120, 1-[3-Fluoro-4-((3S)-3-methyl-1,1-dioxo-6-phenyl-[1,2]thiazinan-2-ylmethyl)-phenyl]-piperidine-4-carboxylic acid]: the IC50 was 102 nM.

Turning to `C[C@H]1CCC(c2ccccc2)S(=O)(=O)N1Cc1ccc(N2CCN(C3=CC(=O)CC3)CC2)cc1F` (stereo partly drawn) [Example 123, 3-{4-[3-Fluoro-4-((3S)-3-methyl-1,1-dioxo-6-phenyl-[1,2]thiazinan-2-ylmethyl)-phenyl]-piperazin-1-yl}-cyclopent-2-enone], the IC50 is 89 nM.

For `CN/C(=N\C#N)N1CCN(c2ccc(CN3[C@@H](C)CCC(c4ccccc4)S3(=O)=O)c(F)c2)CC1` (stereo partly drawn) [Example 124, 1-(4-{3-Fluoro-4-[(3S)-6-phenyl-3-methyl-1,1-dioxo-[1,2]thiazinan-2-ylmethyl]-phenyl}-piperazin-1-yl)-(Z)-N′-cyano-N-methylacetimid-amide], the IC50 turned out to be 10 nM.

`C[C@H]1CCC(c2ccccc2)S(=O)(=O)N1Cc1ccc(N2CCC(C(=O)NC#N)CC2)cc1F` (some centres unmarked) [Example 125]: the 50% inhibitory concentration (IC50) was 18 nM.

As for `CN/C(=C\[N+](=O)[O-])N1CCN(c2ccc(CN3[C@@H](C)CCC(c4ccccc4)S3(=O)=O)c(F)c2)CC1` (stereo partly drawn) [Example 126, ((E)-1-{4-[3-Fluoro-4-((3S)-3-methyl-1,1-dioxo-6-phenyl-[1,2]thiazinan-2-ylmethyl)-phenyl]-piperazin-1-yl}-2-nitro-vinyl)-methyl-amine], the half-maximal inhibitory concentration (IC50) was found to be 258 nM.

As for `CC(=O)N1CCN(c2ccc(CN3[C@@H](C)CCC(c4ccccc4)S3(=O)=O)c(Cl)c2)CC1` (stereo partly drawn) [Example 180, 1-{4-[3-Chloro-4-((3S)-3-methyl-1,1-dioxo-6-phenyl-[1,2]thiazinan-2-ylmethyl)-phenyl]-piperazin-1-yl}-ethanone], the IC50 was 1580 nM.

For the compound `CC1CC(=O)C=C(N2CCN(c3ccc(CN4[C@@H](C)CCC(c5ccccc5)S4(=O)=O)c(F)c3)CC2)C1` (stereo partly drawn) [Example 186, 3-{4-[3-Fluoro-4-((3S)-3-methyl-1,1-dioxo-6-phenyl-[1,2]thiazinan-2-ylmethyl)-phenyl]-piperazin-1-yl}-5-methyl-cyclohex-2-enone], the IC50 turned out to be 179 nM.

Regarding `C[C@H]1CCC(c2ccccc2)S(=O)(=O)N1Cc1ccc(N2CCN(C3=CC(=O)CC(C)(C)C3)CC2)cc1F` (stereo partly drawn) [Example 187, 3-{4-[3-Fluoro-4-((3S)-3-methyl-1,1-dioxo-6-phenyl-[1,2]thiazinan-2-ylmethyl)-phenyl]-piperazin-1-yl}-5,5-dimethyl-cyclohex-2-enone], the half-inhibitory concentration (IC50) came out at 647 nM.

Take `C[C@H]1CCC(c2ccccc2)S(=O)(=O)N1Cc1ccc(N2CCN(C3=CC(=O)CCC3)CC2)cc1F` (stereo partly drawn) [Example 188, 3-{4-[3-Fluoro-4-((3S)-3-methyl-1,1-dioxo-6-phenyl-[1,2]thiazinan-2-ylmethyl)-phenyl]-piperazin-1-yl}-cyclohex-2-enone]: the IC50 was found to be 108 nM.

For `CC1=C(N2CCN(c3ccc(CN4[C@@H](C)CCC(c5ccccc5)S4(=O)=O)c(F)c3)CC2)CCC1=O` (stereo partly drawn) [Example 189, 3-{4-[3-Fluoro-4-((3S)-3-methyl-1,1-dioxo-6-phenyl-[1,2]thiazinan-2-ylmethyl)-phenyl]-piperazin-1-yl}-2-methyl-cyclopent-2-enone], the IC50 was found to be 59 nM.

In the case of `C[C@H]1CCC(c2ccccc2)S(=O)(=O)N1Cc1ccc(N2CCC(n3cccn3)CC2)cc1F` (stereo partly drawn) [Example 209, (3S)-2-[2-Fluoro-4-(4-pyrazol-1-yl-piperidin-1-yl)-benzyl]-3-methyl-6-phenyl-[1,2]thiazinane 1,1-dioxide], the 50% inhibitory concentration (IC50) turned out to be 121 nM.

As to `C[C@H]1CCC(c2ccccc2)S(=O)(=O)N1Cc1ccc(N2CCC(c3nnco3)CC2)cc1F` (stereo partly drawn) [Example 210, (3S)-2-[2-Fluoro-4-(4-[1,3,4]oxadiazol-2-yl-piperidin-1-yl)-benzyl]-3-methyl-6-phenyl-[1,2]thiazinane 1,1-dioxide], the IC50 was 38 nM.

For `C[C@H]1CCC(c2ccccc2)S(=O)(=O)N1Cc1ccc(N2CCC(n3cncn3)CC2)cc1F` (stereo partly drawn) [Example 215, (3S)-2-[2-Fluoro-4-(4-[1,2,4]triazol-1-yl-piperidin-1-yl)-benzyl]-3-methyl-6-phenyl-[1,2]thiazinane 1,1-dioxide], the half-inhibitory concentration (IC50) was 30 nM.

On to `C[C@H]1CCC(c2ccccc2)S(=O)(=O)N1Cc1ccc(NC2CCN(S(C)(=O)=O)CC2)cc1` (stereo partly drawn) [Example 216, (1-Methanesulfonyl-piperidin-4-yl)-[4-((3S)-3-methyl-1,1-dioxo-6-phenyl-[1,2]thiazinan-2-ylmethyl)-phenyl]-amine], for which the IC50 turned out to be 9 nM.

On to `C[C@H]1CCC(c2ccccc2)S(=O)(=O)N1Cc1ccc(N2CCC(n3ccnc3)CC2)cc1F` (stereo partly drawn) [Example 217, (3S)-2-[2-Fluoro-4-(4-imidazol-1-yl-piperidin-1-yl)-benzyl]-3-methyl-6-phenyl-[1,2]thiazinane 1,1-dioxide], for which the IC50 was 11 nM.

For the compound `C[C@@H]1CC(c2ccccc2)S(=O)(=O)N(Cc2ccc(NC3CCN(S(C)(=O)=O)CC3)cc2F)C1` (stereo partly drawn) [Example 227, [3-Fluoro-4-((4R)-methyl-1,1-dioxo-6-phenyl-[1,2]thiazinan-2-ylmethyl)-phenyl]-(1-methanesulfonyl-piperidin-4-yl)-amine], the IC50 came out at 3 nM.

In the case of `C[C@@H]1CC(c2ccccc2)S(=O)(=O)N(Cc2ccc(N3CCN(C(=O)CC#N)CC3)cc2F)C1` (stereo partly drawn) [Example 230, 3-{4-[3-Fluoro-4-((4R)-methyl-1,1-dioxo-6-phenyl-[1,2]thiazinan-2-ylmethyl)-phenyl]-piperazin-1-yl}-3-oxo-propionitrile], the IC50 worked out at 93 nM.

Regarding `C[C@H]1CCC(c2ccccc2)S(=O)(=O)N1Cc1ccc(N[C@H]2CC[C@@H](n3cnnc3)CC2)cc1F` (stereo partly drawn) [Example 231, [3-Fluoro-4-((3S)-methyl-1,1-dioxo-6-phenyl-[1,2]thiazinan-2-ylmethyl)-phenyl]-(4-[1,2,4]triazol-4-yl-cyclohexyl)-amine], the IC50 was 73 nM.

On to `C[C@H]1CCC(c2ccccc2)S(=O)(=O)N1Cc1ccc(N[C@H]2CC[C@H](n3cnnc3)CC2)cc1F` (stereo partly drawn) [Example 232, [3-Fluoro-4-((3S)-methyl-1,1-dioxo-6-phenyl-[1,2]thiazinan-2-ylmethyl)-phenyl]-(4-[1,2,4]triazol-4-yl-cyclohexyl)-amine], for which the IC50 was 275 nM.

For the compound `C[C@H]1CCC(c2ccccc2)S(=O)(=O)N1Cc1ccc(N2CCC(/C(N)=N/O)CC2)cc1F` (stereo partly drawn) [Example 233, 1-[3-Fluoro-4-((3S)-methyl-1,1-dioxo-6-phenyl-[1,2]thiazinan-2-ylmethyl)-phenyl]-N-hydroxy-piperidine-4-carboxamidine], the IC50 was 39 nM.

Turning to `C[C@H]1CCC(c2ccccc2)S(=O)(=O)N1Cc1ccc(N[C@H]2C[C@H](n3cnnc3)C2)cc1F` (stereo partly drawn) [Example 234, [3-Fluoro-4-((3S)-methyl-1,1-dioxo-6-phenyl-[1,2]thiazinan-2-ylmethyl)-phenyl]-(3-[1,2,4]triazol-4-yl-cyclobutyl)-amine], the IC50 was determined as 132 nM.

In the case of `C[C@H]1CCC(c2ccccc2)S(=O)(=O)N1Cc1ccc(N2CCC(c3ncon3)CC2)cc1F` (stereo partly drawn) [Example 235, 2-[2-Fluoro-4-(4-[1,2,4]oxadiazol-3-yl-piperidin-1-yl)-benzyl]-(3S)-methyl-6-phenyl-[1,2]thiazinane 1,1-dioxide], the IC50 amounted to 40 nM.

With `C[C@H]1CCC(c2ccccc2)S(=O)(=O)N1Cc1ccc(NC2CCN(S(C)(=O)=O)CC2)c(F)c1` (stereo partly drawn) [Example 236, [2-Fluoro-4-((3S)-methyl-1,1-dioxo-6-phenyl-[1,2]thiazinan-2-ylmethyl)-phenyl]-(1-methanesulfonyl-piperidin-4-yl)-amine], the IC50 turned out to be 6 nM.

For the compound `CC(=O)N1CCN(c2ccc(CN3[C@@H](C)CCC(c4ccccc4)S3(=O)=O)c(F)c2)[C@@H](C)C1` (stereo partly drawn) [Example 237, 1-{4-[3-Fluoro-4-((3S)-methyl-1,1-dioxo-6-phenyl-[1,2]thiazinan-2-ylmethyl)-phenyl]-3-methyl-piperazin-1-yl}-ethanone], the IC50 amounted to 6 nM.

For `CC(=O)N1CCN(c2ccc(CN3[C@@H](C)CCC(c4ccccc4)S3(=O)=O)c(F)c2)C[C@@H]1C` (stereo partly drawn) [Example 238, 1-{4-[3-Fluoro-4-((3S)-methyl-1,1-dioxo-6-phenyl-[1,2]thiazinan-2-ylmethyl)-phenyl]-2-methyl-piperazin-1-yl}-ethanone], the IC50 is 8 nM.

As for `C[C@H]1CCC(c2ccccc2)S(=O)(=O)N1Cc1ccc(N[C@H]2C[C@@H](n3cnnc3)C2)cc1F` (stereo partly drawn) [Example 241, [3-Fluoro-4-((3S)-methyl-1,1-dioxo-6-phenyl-[1,2]thiazinan-2-ylmethyl)-phenyl]-(3-[1,2,4]triazol-4-yl-cyclobutyl)-amine], the IC50 was 85 nM.
